The source made the active and inactive calls. No cut-off for these calls is given here.
What was measured:
HepG2 [1] = experiment: Recovery of energy production in 40% FBS-induced steatosis human HepG2 cells model assessed as upregulation of mitochondrial ATP production incubated in steatosis inducing DMEM with 40% FBS medium for 24 hrs followed by compound treatment by luciferase based assay; assay type: functional, cell-based; settings: Mitochondria, dose 0.2-5 µM
HepG2 [2] = experiment: Induction of mitochondrial biogenesis in human HepG2 cells assessed as mitochondrial ND6 protein expression incubated for 24 hrs in presence of SIRT1 inhibitor, EX527 by western blot analysis; assay type: functional, cell-based
Mitochondria = experiment: Inhibition of mitochondrial dysfunction in 40% FBS-induced steatosis human HepG2 cells model assessed as decrease in lipid vesicle droplets at 5 uM incubated for 24 hrs by transmission electron microscopy; assay type: functional
HepG2 [3] = experiment: Inhibition of liver injury in 40% FBS-induced steatosis human HepG2 cells model assessed as decrease in LDH level at 0.2 to 5 uM incubated with compound for 24 hrs followed by replacement with steatosis inducing DMEM with 40% FBS medium; assay type: functional, cell-based; settings: dose 0.2-5 µM
HepG2 [4] = experiment: Induction of mitochondrial biogenesis in human HepG2 cells assessed as TFAM mRNA expression incubated for 24 hrs in presence of SIRT1 inhibitor, EX527 by qRT-PCR analysis; assay type: functional, cell-based
HepG2 [5] = experiment: Induction of mitochondrial biogenesis in human HepG2 cells assessed as mitochondrial ND6 mRNA expression incubated for 24 hrs in presence of SIRT1 inhibitor, EX527 by qRT-PCR analysis; assay type: functional, cell-based
Rattus norvegicus [6] = experiment: Hepatoprotective activity against high fat diet-fed NAFLD Sprague-Dawley rat model assessed as decrease in serum total cholesterol content administered intragastrically via gavage for 4 weeks; assay type: functional, organism-based; settings: dose 12.3-61.4 mg/kg, route ig
HepG2 [7] = experiment: Recovery of mitochondrial activity in 40% FBS-induced steatosis human HepG2 cells model assessed as increase in number of mitochondria incubated with compound for 24 hrs followed by replacement with steatosis inducing DMEM with 40% FBS medium by MitoTracker Green based fluorescence analysis; assay type: functional, cell-based; settings: dose 0.2-5 µM
HepG2 [8] = experiment: Recovery of mitochondrial biogenesis in 40% FBS-induced steatosis human HepG2 cells model assessed as increase in mitochondrial ND6 protein expression incubated for 24 hrs by western blot analysis; assay type: functional, cell-based; settings: dose 0.2-5 µM
Rattus norvegicus [9] = experiment: Hepatoprotective activity against high fat diet-fed NAFLD Sprague-Dawley rat model assessed as decrease in serum AKP level administered intragastrically via gavage for 4 weeks; assay type: functional, organism-based; settings: dose 12.3-61.4 mg/kg, route ig
EA.hy 926 [10] = experiment: Cytoprotective activity against H2O2-induced toxicity in human EA.hy 926 cells assessed as protective rate pretreated with compound for 4 hrs followed by incubation with H2O2 for 2 hrs by absorbance based analysis; assay type: functional, cell-based
Rattus norvegicus [11] = experiment: Hepatoprotective activity against high fat diet-fed NAFLD Sprague-Dawley rat model assessed as increase in serum GSH level administered intragastrically via gavage for 4 weeks; assay type: functional, organism-based; settings: dose 12.3-61.4 mg/kg, route ig
EA.hy 926 [12] = experiment: Cytoprotective activity against H2O2-induced toxicity in human EA.hy 926 cells assessed as protective rate at 10 uM pretreated with compound for 4 hrs followed by incubation with H2O2 for 2 hrs by absorbance based analysis; assay type: functional; settings: time 6 hrs
HepG2 [13] = experiment: Inhibition of mitochondrial membrane potential dissipation in 40% FBS-induced steatosis human HepG2 cells model assessed as increase in mitochondrial membrane potential incubated in steatosis inducing DMEM with 40% FBS medium for 24 hrs followed by compound treatment by JC-1 staining based fluorescence microscopy; assay type: functional, cell-based; settings: Mitochondria, dose 0.2-5 µM
HepG2 [14] = experiment: Recovery of mitochondrial biogenesis in 40% FBS-induced steatosis human HepG2 cells model assessed as increase in PGC1alpha protein expression incubated for 24 hrs by western blot analysis; assay type: functional, cell-based; settings: dose 0.2-5 µM
HepG2 [15] = experiment: Induction of mitochondrial biogenesis in human HepG2 cells assessed as mitochondrial COX1 protein expression incubated for 24 hrs in presence of SIRT1 inhibitor, EX527 by western blot analysis; assay type: functional, cell-based
HepG2 [16] = experiment: Recovery of energy production in 40% FBS-induced steatosis human HepG2 cells model assessed as upregulation of mitochondrial ATP production incubated with compound for 24 hrs followed by replacement with steatosis inducing DMEM with 40% FBS medium by luciferase based assay; assay type: functional, cell-based; settings: Mitochondria, dose 0.2-5 µM
HepG2 [17] = experiment: Inhibition of liver injury in 40% FBS-induced steatosis human HepG2 cells model assessed as decrease in ALT level at 0.2 to 5 uM incubated with compound for 24 hrs followed by replacement with steatosis inducing DMEM with 40% FBS medium; assay type: functional, cell-based; settings: dose 0.2-5 µM
HepG2 [18] = experiment: Recovery of mitochondrial biogenesis in 40% FBS-induced steatosis human HepG2 cells model assessed as increase in mitochondrial COX1 protein expression incubated for 24 hrs by western blot analysis; assay type: functional, cell-based; settings: dose 0.2-5 µM
HepG2 [19] = experiment: Recovery of mitochondrial activity in 40% FBS-induced steatosis human HepG2 cells model assessed as increase in number of mitochondria incubated in steatosis inducing DMEM with 40% FBS medium for 24 hrs followed by compound treatment by MitoTracker Green based fluorescence analysis; assay type: functional, cell-based; settings: dose 0.2-5 µM
Rattus norvegicus [20] = experiment: Hepatoprotective activity against high fat diet-fed NAFLD Sprague-Dawley rat model assessed as decrease in serum GDH level administered intragastrically via gavage for 4 weeks; assay type: functional, organism-based; settings: dose 12.3-61.4 mg/kg, route ig
HepG2 [21] = experiment: Induction of mitochondrial biogenesis in human HepG2 cells assessed as NRF1 protein expression incubated for 24 hrs in presence of SIRT1 inhibitor, EX527 by western blot analysis; assay type: functional, cell-based
Rattus norvegicus [22] = experiment: Hepatoprotective activity against high fat diet-fed NAFLD Sprague-Dawley rat model assessed as decrease in serum gamma-GT level administered intragastrically via gavage for 4 weeks; assay type: functional, organism-based; settings: dose 12.3-61.4 mg/kg, route ig
[23] = molecular target: T1, Peroxisome proliferator-activated receptor gamma coactivator 1-alpha (Homo sapiens) (UniProt Q9UBK2); experiment: Binding affinity to PGC1alpha in human HepG2 cells assessed as increase in thermal stabilization of protein at 320 uM pretreated with compound for 30 mins followed by incubation at 40 to 65 degC for 3 mins by CETSA-WB analysis; assay type: cell-based; settings: filed as activator, time 33.0 min
T1 sequence (whole entry): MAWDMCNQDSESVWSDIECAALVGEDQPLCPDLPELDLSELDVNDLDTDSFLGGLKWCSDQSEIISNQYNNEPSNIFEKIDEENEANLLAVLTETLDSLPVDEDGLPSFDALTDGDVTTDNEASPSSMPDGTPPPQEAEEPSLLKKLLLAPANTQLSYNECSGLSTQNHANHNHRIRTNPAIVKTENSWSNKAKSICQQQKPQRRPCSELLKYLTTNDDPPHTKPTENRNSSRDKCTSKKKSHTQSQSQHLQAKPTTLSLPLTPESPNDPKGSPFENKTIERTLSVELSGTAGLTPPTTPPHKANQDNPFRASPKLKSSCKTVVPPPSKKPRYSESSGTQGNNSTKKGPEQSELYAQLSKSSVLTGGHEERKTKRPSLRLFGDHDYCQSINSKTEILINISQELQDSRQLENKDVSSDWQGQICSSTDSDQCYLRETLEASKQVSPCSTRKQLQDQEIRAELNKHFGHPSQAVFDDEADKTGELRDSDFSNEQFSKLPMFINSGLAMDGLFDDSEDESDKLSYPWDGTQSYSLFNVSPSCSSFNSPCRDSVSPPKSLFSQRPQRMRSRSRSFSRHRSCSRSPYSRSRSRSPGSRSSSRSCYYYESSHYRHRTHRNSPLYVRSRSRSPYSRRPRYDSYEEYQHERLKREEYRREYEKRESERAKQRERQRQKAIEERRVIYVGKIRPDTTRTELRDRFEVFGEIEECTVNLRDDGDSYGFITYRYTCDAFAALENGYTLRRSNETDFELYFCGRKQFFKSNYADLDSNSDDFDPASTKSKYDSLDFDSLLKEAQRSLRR

`CC(C)(C)c1ccc(C(=O)c2ccc(O)c(O)c2)cc1` was tested, and the Activity (HepG2 [1]) was “Dose-Dependent Effect”, the Activity (HepG2 [2]) was “inactive” and the inhibition (Mitochondria) was “Active”. For the same compound, the inhibition (HepG2 [3]) was “Active”, the Activity (HepG2 [4]) was “inactive” and the Activity (HepG2 [5]) was “inactive”. The Activity (Rattus norvegicus [6]) was “Dose-Dependent Effect”, the Activity (HepG2 [7]) was “Dose-Dependent Effect” and the Activity (HepG2 [8]) was “Dose-Dependent Effect”. The Activity (Rattus norvegicus [9]) was “Active”, the EC50 (EA.hy 926 [10]) was 72.3 nM and the Activity (Rattus norvegicus [11]) was “Active”. For the same compound, the Activity (EA.hy 926 [12]) was 87.46%, the inhibition (HepG2 [13]) was “Dose-Dependent Effect” and the Activity (HepG2 [14]) was “Dose-Dependent Effect”. For the same compound, the Activity (HepG2 [15]) was “inactive”, the Activity (HepG2 [16]) was “Dose-Dependent Effect” and the inhibition (HepG2 [17]) was “Active”. The Activity (HepG2 [18]) was “Dose-Dependent Effect”, the Activity (HepG2 [19]) was “Dose-Dependent Effect” and the Activity (Rattus norvegicus [20]) was “Active”. The Activity (HepG2 [21]) was “inactive”, the Activity (Rattus norvegicus [22]) was “Active” and the Activity [23] was “Active”.

Reference: ChEMBL document CHEMBL5537110, “SIRT1-dependent mitochondrial biogenesis supports therapeutic effects of 4-butyl-polyhydroxybenzophenone compounds against NAFLD” (Eur J Med Chem, 2023)
